Assay results taken from patent publication US20220287345A1, “SOLUBILITY ENHANCEMENT OF POORLY SOLUBLE ACTIVES” (Evonik Operations GmbH, priority 2019, published 2022).
≈ marks a conversion by molar mass, not a printed value.

Assay: physchem
Conditions: for solubility: water, thermodynamic from solid
Method: Analysis of the blend was done and its solubility in water was analyzed (table 3).
All the tablets prepared as shown in table 8 were analyzed in water to check whether there is an enhancement in solubility of the drug when compared to the pure form (table 9).
The compressed tablets prepared according table 13 were analyzed in water to check whether there is any enhancement in solubility of the drug when compared to the pure form (table 14).
All the blends and tablets prepared according to table 15 were analyzed in water for any enhancement in solubility of the drug when compared to the pure form.
The capsules were further analyzed for water solubility of the active ingredient.
The solution was spray dried using a spray drier (Inlet temperature: 55-60° C., Aspirator: 90-100%).

solubility [µg/mL]	Solubility of AFI/API in water [µg/mL]	Structure (SMILES)
3.6 (≈ 11.9 µM)	–	O=c1c(O)c(-c2ccc(O)c(O)c2)oc2cc(O)cc(O)c12 [Experiment C-6, Quercetin]
–	0.0	COc1cc(/C=C/C(=O)CC(=O)/C=C/c2ccc(O)c(OC)c2)ccc1O [Experiment C-4, Curcumin]
0.1 (≈ 0.262 µM)	–	Cc1ccc(-c2cc(C(F)(F)F)nn2-c2ccc(S(N)(=O)=O)cc2)cc1 [Experiment C-1, Celecoxib]

Second part, the compound before the results:

Structure (SMILES)	solubility [µg/mL]	Solubility of AFI/API in water [µg/mL]
Cc1ccc(S(=O)(=O)NC(=O)NN2CC3CCCC3C2)cc1 (centres unmarked) [Experiment C-8, Gliclazide]	21 (≈ 64.9 µM)	–
NC(=O)N1c2ccccc2C=Cc2ccccc21 [Experiment C-9, Carbamazepine]	240 (≈ 1020 µM)	–
